Patent US6825199B2, “7-Substituted quinazolin-2,4-diones useful as antibacterial agents” (Warner-Lambert Company, priority 1997, dated 2004)
Values after ≈ are worked out from the molar mass of the structure shown.

What was measured:
Format in all cases: cell-based
B. subtilis RB1 = assay: Antibacterial assay, standard microtitration (MIC); conditions: Bacillus subtilis, Gram positive, read-out: Minimum Inhibitory Concentrations B. subtilis RB1
Procedure: (§1) Antibacterial assay: The compounds of the present invention were tested against an assortment of Gram negative and Gram positive organisms using standard microtitration techniques (Cohen, et al., Antimicrob. Agents Chemother., 1985;28:766; Heifetz, et al., Antimicrob. Agents Chemother., 1974;6:124).

E. coli B90 = assay: Antibacterial assay, standard microtitration (MIC); conditions: Escherichia coli, B90; Gram negative; read-out: Minimum Inhibitory Concentrations E. coli B90
Procedure: as §1

E. coli MC4100 = assay: Antibacterial assay, standard microtitration (MIC); conditions: Escherichia coli, MC4100; Gram negative; read-out: Minimum Inhibitory Concentrations E. coli MC4100
Procedure: as §1

E. coli Tol C = assay: Antibacterial assay, standard microtitration (MIC); conditions: Escherichia coli, read-out: Minimum Inhibitory Concentrations E. coli Tol C
Procedure: as §1

S. aureus 29213 = assay: Antibacterial assay, standard microtitration (MIC); conditions: Staphylococcus aureus, 29213; Gram positive; read-out: Minimum Inhibitory Concentrations S. aureus 29213
Procedure: as §1

S. pyogenes C203 = assay: Antibacterial assay, standard microtitration (MIC); conditions: Streptococcus pyogenes, C203; Gram positive; read-out: Minimum Inhibitory Concentrations S. pyogenes C203
Procedure: as §1

[1] = test system: Chinese hamster V79 cells; assay: Mammalian cell cytotoxicity, colony formation; conditions: 3 hours drug treatment, colony formation after 5 days
Procedure: The cytotoxicity was determined in Chinese hamster V79 cells. The cells were grown overnight and treated with drug for 3 hours at 37° C., at which time the compound containing media was replaced with fresh media. The cells were then incubated for 5 days and examined for colony formation.

For `CCn1c(=O)n(O)c(=O)c2cc(F)c(N3CCOCC3)cc21` [Example 3, 1-Ethyl-6-fluoro-3-hydroxy-7-morpholin-4-yl-1H-quinazoline-2,4-dione], the MIC (B. subtilis RB1) was 8 µg/mL (≈ 25.9 µM), the MIC (E. coli B90) was 4 µg/mL (≈ 12.9 µM) and the MIC (E. coli MC4100) was > 64 µg/mL. For the same compound, the MIC (E. coli Tol C) was 2 µg/mL (≈ 6.47 µM), the MIC (S. aureus 29213) was > 64 µg/mL and the MIC (S. pyogenes C203) was > 64 µg/mL. For the same compound, the “50% Cytotoxic Conc. in CHO Cells” value [1] was 176 µg/mL.
